US5594027A, “Aminocycloalkanobenzodioxoles as beta-3 selective adrenergic agents” (American Cyanamid Company, priority 1995, dated 1997)
Counter-ions that a name gives are not always drawn.

Experiments:
β3-adrenergic receptor = target: T1, β3-adrenergic receptor (Rattus norvegicus, UniProt P26255); experiment: Stimulation of adipocyte lipolysis (β3-effect), glycerol generated; type: cell-based; settings: rat epididymal adipocytes, 30 min at 37° C.; concentration giving 50% of the compound's own maximum rate of lipolysis; read-out: Lipolysis (beta3)(EC50 nM)
T1 construct: Rat epididymal fat pads are excised and placed in 0.9% saline; from tissue; host or cells: adipocytes isolated by collagenase from rat epididymal fat pads
From the text: (§1) β-Adrenergic receptors can be divided into β1, β2 and β 3-subtypes. Activation of β1 -receptors invokes increases in heart rate while activation of β2 -receptors stimulates glycogen breakdown in muscle and thereby prevents glycogen synthesis. Activation of β3 -receptors stimulates lipolysis (the breakdown of adipose tissue triglycerides to glycerol and free fatty acids), and thereby promotes the loss of fat mass. Ccmpounds that stimulate β3 -receptors will have antiobesity activity. In addition, they have hypoglycemic or anti-diabetic activity, but the mechanism of this effect is unknown. A compound that selectively stimulates β3 -receptors, i.e. has little or no β1 or β2 -activity, will have the desired anti-diabetic and/or anti-obesity activity, but without the undesired effects of increased heart rate (β1 -effect) or muscle tremor (β2 -effect).
(§2) Selectivity of a compound is determined using the following procedures.
The β3 -effect of the compounds is determined by their ability to stimulate adipocyte lipolysis. Rat epididymal fat pads are excised and placed in 0.9% saline. Four grams of tissue is transferred to a flask with 20 ml of aerated Krebs-Henseleit bicarbonate (KHB) buffer containing 3% fatty acid-free bovine serum albumin to which 75 mg of crude bacterial collagenase (Worthington) has been added. The tissue is incubated for about 45 minutes at 37° C. with gentle shaking. The cells are then washed three times with two volumes of KHB buffer, filtered through two layers of gauze, and brought to a final volume of 80 ml with KHB buffer. One ml aliquots of the cell suspension is added to plastic test tubes containing the appropriate additions of vehicle or compound. The cells are gassed for 1 minute with 95%O2 -5%CO2, capped, and incubated at 37° C. with continuous shaking for a total of 30 minutes. The reaction is stopped by adding 0.1 ml of 30% perchloric acid and 0.1 ml of chloroform. After centrifugation, 0.5 ml of supernatant is transferred to another test tube and neutralized with 0.04 ml of 3M K2 CO3 -0.5M triethanolamine. The amount of glycerol generated from the hydrolysis of endogenous triglycerides is determined in a coupled-enzyme spectrophotometric assay. One-tenth milliliter of the neutralized extract is added to a test tube that contains 0.91 ml of assay mixture comprised of the following: 0.84M glycine, 0.42M hydrazine sulfate, 4.2 mM EDTA, 0.9 mM β-NAD, 9.9 mM MgCl2, 1 mM ATP, 17 U of glycerophosphate dehydrogenase, and 4.3 U of glycerokinase. The test tubes are incubated for 40 minutes at 37° C. with constant shaking. The amount of NADH generated, which is proportional to the amount of glycerol, is determined by the increase in absorbance at 340 nm. […]

β1-adrenergic receptor = target: T2, β1-adrenergic receptor (Rattus norvegicus, UniProt P18090); experiment: Heart membrane binding (β1-effect), [125I]iodocyanopindolol; settings: rat heart membranes, 1 hour
T2 construct: membranes from rat heart; from tissue; host or cells: rat heart membranes
From the text: as §1, §2
Binding assays for β1 -effect are carried out by the use of membranes from rat heart, and β2 -effect by the use of membranes from rat lung by the method described in Neve, et al., J. Pharmacol. Exp. Ther., 1985, 235, 657-664 with the following exceptions:
1. the incubation volume is 0.5 ml,
2. the incubation time is 1 hour,
3. the radioligand is [^125 I]iodocyanopindolol,
4. (-)-isoproterenol (50 μM) is used to define specific binding, and
5. the filters are washed at 4° C.

T2 sequence (P18090 whole entry): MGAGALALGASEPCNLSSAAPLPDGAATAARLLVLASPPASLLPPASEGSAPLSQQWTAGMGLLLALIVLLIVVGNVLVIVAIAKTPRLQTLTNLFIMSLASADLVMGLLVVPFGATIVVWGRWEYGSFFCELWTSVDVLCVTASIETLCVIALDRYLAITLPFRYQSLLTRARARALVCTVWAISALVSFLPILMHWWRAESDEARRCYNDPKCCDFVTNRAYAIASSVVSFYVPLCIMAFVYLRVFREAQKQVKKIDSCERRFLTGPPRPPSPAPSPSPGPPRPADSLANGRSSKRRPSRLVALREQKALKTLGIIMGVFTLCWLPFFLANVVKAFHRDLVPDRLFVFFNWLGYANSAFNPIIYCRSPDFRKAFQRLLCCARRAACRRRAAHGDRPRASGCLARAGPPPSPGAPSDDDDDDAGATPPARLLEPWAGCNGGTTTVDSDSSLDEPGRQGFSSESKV
T1 sequence (P26255 whole entry): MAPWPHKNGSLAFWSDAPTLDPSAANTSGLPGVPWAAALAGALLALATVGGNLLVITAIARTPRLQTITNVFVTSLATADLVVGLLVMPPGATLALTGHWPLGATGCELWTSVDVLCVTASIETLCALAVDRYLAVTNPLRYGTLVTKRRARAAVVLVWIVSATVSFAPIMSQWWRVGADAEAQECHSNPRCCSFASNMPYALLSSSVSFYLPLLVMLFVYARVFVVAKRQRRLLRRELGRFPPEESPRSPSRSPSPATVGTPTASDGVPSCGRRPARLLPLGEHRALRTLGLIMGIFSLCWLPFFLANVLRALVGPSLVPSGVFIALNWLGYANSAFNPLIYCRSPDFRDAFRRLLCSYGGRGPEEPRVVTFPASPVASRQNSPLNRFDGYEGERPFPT

SMILES | EC50 (β3-adrenergic receptor) | IC50 (β1-adrenergic receptor)
O=C(O)C1(C(=O)O)Oc2ccc3c(c2O1)C[C@@H](NC[C@H](O)c1cccc(Cl)c1)C3 [Example 3, [R-(R*,R* or R*,S*)]7-[[2-(3-Chlorophenyl)-2-hydroxyethyl]amino]-7,8-dihydro-6H-indeno[4,5-d]-1,3-dioxole-2,2-dicarboxylic acid disodium salt] | 2590 nM | > 1000 nM
O=C(O)C1(C(=O)O)Oc2cc3c(cc2O1)CC(NCC(O)c1cccc(Cl)c1)CC3 (stereo not drawn) [Example 7, (R*,R*), and (R*,S*)-6-[[2-(3-Chlorophenyl)-2-hydroxyethyl]amino]-5,6,7,8-tetrahydronaphtho[2,3-d]-1,3-dioxole-2,3-dicarboxylic acid disodium salt] | 4000 nM | > 1000 nM
O=C(O)C1(C(=O)O)Oc2cc3c(cc2O1)CC(NC[C@H](O)c1cccc(Cl)c1)C3 [Example 5, (R)-7-[[2-(3-Chlorophenyl)-2-hydroxyethyl]amino]7,8-dihydro-6H-indeno[5,6-d]-1,3-dioxole-2,2-dicarboxylic acid disodium salt] | 100 nM | > 1000 nM
O=C(O)C1(C(=O)O)Oc2ccc3c(c2O1)C[C@H](NC[C@H](O)c1cccc(Cl)c1)C3 [Example 4, [R-(R*,R* or R*,S*)]-7-[[2-(3-Chlorophenyl)-2-hydroxyethyl]amino]-7,8-dihydro-6H-indeno[4,5-d]-1,3-dioxole-2,2-dicarboxylic acid disodium salt] | 14.6 nM | > 1000 nM
